Laboratory results as given in the supplement of paper PMC10307832.

What was measured:
Experiment in all cases: relative viability (nuclei count vs DMSO), 5 days (fraction); higher = more cells survive
Gemcitabine + Luminespib = compound: Nc1ccn([C@@H]2O[C@H](CO)[C@@H](O)C2(F)F)c(=O)n1 [Gemcitabine] + CCNC(=O)c1noc(-c2cc(C(C)C)c(O)cc2O)c1-c1ccc(CN2CCOCC2)cc1 [Luminespib] (partner 0.01 µM)
Summary of the method: (§1)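 Relative viability equals treated-well nuclei counts divided by vehicle-well nuclei counts. Counts came from 4× images of lung cancer cell lines grown in 1536-well plates for 5 days after pin-tool dosing on the day after seeding. Dosing used one drug alone or a fixed anchor-drug dose plus five library-drug doses (not always all listed) in √10 steps, and values are medians of duplicate plates.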

Gemcitabine + Bortezomib = compound: Nc1ccn([C@@H]2O[C@H](CO)[C@@H](O)C2(F)F)c(=O)n1 [Gemcitabine] + CC(C)C[C@H](NC(=O)[C@H](Cc1ccccc1)NC(=O)c1cnccn1)B(O)O [Bortezomib] (partner 0.002 µM)
Summary of the method: as §1

Gemcitabine + Dasatinib = compound: Nc1ccn([C@@H]2O[C@H](CO)[C@@H](O)C2(F)F)c(=O)n1 [Gemcitabine] + Cc1nc(Nc2ncc(C(=O)Nc3c(C)cccc3Cl)s2)cc(N2CCN(CCO)CC2)n1 [Dasatinib] (partner 0.075 µM)
Summary of the method: as §1

[1] = compound: Nc1ccn([C@@H]2O[C@H](CO)[C@@H](O)C2(F)F)c(=O)n1 [Gemcitabine] + CC(=O)c1c(C)c2cnc(Nc3ccc(N4CCNCC4)cn3)nc2n(C2CCCC2)c1=O [Palbociclib] (partner 0.5 µM)
Summary of the method: as §1

Cell Line | relative viability (Gemcitabine + Luminespib; first compound 0.001 µM) | relative viability (Gemcitabine + Luminespib; first compound 0.003162 µM) | relative viability (Gemcitabine + Luminespib; first compound 0.01 µM) | relative viability (Gemcitabine + Luminespib; first compound 0.03162 µM) | relative viability (Gemcitabine + Luminespib; first compound 0.1 µM) | relative viability (Gemcitabine + Bortezomib; first compound 0.001 µM) | relative viability (Gemcitabine + Bortezomib; first compound 0.003162 µM) | relative viability (Gemcitabine + Bortezomib; first compound 0.01 µM) | relative viability (Gemcitabine + Bortezomib; first compound 0.03162 µM) | relative viability (Gemcitabine + Bortezomib; first compound 0.1 µM) | relative viability (Gemcitabine + Dasatinib; first compound 0.001 µM) | relative viability (Gemcitabine + Dasatinib; first compound 0.003162 µM) | relative viability (Gemcitabine + Dasatinib; first compound 0.01 µM) | relative viability (Gemcitabine + Dasatinib; first compound 0.03162 µM) | relative viability (Gemcitabine + Dasatinib; first compound 0.1 µM) | relative viability ([1]; first compound 0.001 µM) | relative viability ([1]; first compound 0.003162 µM) | relative viability ([1]; first compound 0.01 µM) | relative viability ([1]; first compound 0.03162 µM) | relative viability ([1]; first compound 0.1 µM)
HOP-62 | 0.968 | 0.852 | 0.376 | 0.107 | 0.106 | 0.506 | 0.39 | 0.209 | 0.0446 | 0.0459 | 0.667 | 0.571 | 0.163 | 0.0786 | 0.0707 | 0.358 | 0.339 | 0.184 | 0.0959 | 0.0958
NCI-H1915 | 0.826 | 0.759 | 0.693 | 0.669 | 0.356 | 0.978 | 1 | 0.969 | 0.825 | 0.617 | 0.357 | 0.344 | 0.295 | 0.255 | 0.181 | 0.522 | 0.532 | 0.508 | 0.425 | 0.22
NCI-H3122 | 0.1 | 0.0845 | 0.0643 | 0.0629 | 0.0705 | 1.08 | 0.985 | 0.889 | 0.303 | 0.24 | 0.852 | 0.89 | 0.588 | 0.0797 | 0.0782 | 0.195 | 0.177 | 0.175 | 0.119 | 0.148
NCI-H1651 | 0.906 | 0.893 | 0.731 | 0.278 | 0.134 | 0.988 | 0.89 | 0.919 | 0.885 | 0.173 | 0.412 | 0.495 | 0.257 | 0.0946 | 0.0687 | 0.509 | 0.496 | 0.536 | 0.311 | 0.136
NCI-H838 | 0.286 | 0.289 | 0.241 | 0.292 | 0.18 | 0.911 | 0.948 | 1.02 | 0.355 | 0.0993 | 0.293 | 0.287 | 0.318 | 0.261 | 0.136 | 0.228 | 0.244 | 0.237 | 0.199 | 0.125
SK-LU-1 | 0.175 | 0.197 | 0.188 | 0.18 | 0.169 | 1.16 | 0.281 | 0.23 | 0.175 | 0.224 | 0.165 | 0.123 | 0.106 | 0.112 | 0.131 | 0.386 | 0.312 | 0.283 | 0.184 | 0.221
NCI-H441 | 0.343 | 0.332 | 0.198 | 0.189 | 0.177 | 0.642 | 0.327 | 0.116 | 0.14 | 0.139 | 0.569 | 0.282 | 0.215 | 0.129 | 0.133 | 0.242 | 0.163 | 0.178 | 0.13 | 0.123
NCI-H650 | 0.753 | 0.522 | 0.185 | 0.16 | 0.155 | 0.847 | 0.327 | 0.201 | 0.151 | 0.175 | 0.428 | 0.329 | 0.228 | 0.149 | 0.157 | 0.221 | 0.189 | 0.136 | 0.123 | 0.146
